A short description of data set [1]: Evaluation 1 (Solubility): saturation solubility in water, THF, NMP and toluene. Type of data set: physicochemical. The note with it: for Solubility NMP: N-methylpyrrolidone; for Solubility NMP / Solubility THF / Solubility Toluene / Solubility Water: 25° C., saturation solubility; for Solubility THF: tetrahydrofuran. As for the experimental part: 2 g each of water, tetrahydrofuran (THF), N-methylpyrrolidone (NMP), and toluene were added to glass screw tube bottles. Small portions of styrenesulfonic acid salts were added thereto at 25° C., and the solubilities thereof were observed while shaking the bottles by hand. In each case, the point at which the solid started to remain was determined to be saturation solubility, and the solubility was calculated by the following Equation. Solubility (wt %)=A/(S+A)×100
A: Weight of amine added (g)

A short description of data set [2]: Evaluation 2 (Storage Stability): accelerated test of polymerization stability of the solid at 60° C. The note with it: for Comprehensive Evaluation (storage stability): sealed bottle, one week.
Description: 2.0 g of the solid of styrenesulfonic acid salt was added to glass screw tube bottle, and the bottle was sealed with a plug. Then, the bottle was placed in a box dryer at 60° C., and an accelerated test of polymerization stability was performed.
Sampling was performed every other day for a total of one week to check properties, odor, pH change, and the progress of polymerization by heat.
TOASS was dissolved in dimethylformamide and subjected to GPC analysis using a 10 mmol/L lithium bromide dimethylformamide solution as eluent.

Read-outs that look alike come from different tables or passages of the source.

For `C=Cc1ccc(S(=O)(=O)O)cc1.CCCCCCCCN` [MOASS, parastyrenesulfonic acid n-monooctylamine salt, reference compound], in data set [1], the “Solubility (in words)” value is recorded as “did not have sufficient solubility”. The “Monomer (area %), after one week” value in data set [2] (GPC, solid, 60° C.) is recorded as 92.20 area %. In data set [2] (solid, 60° C.), the “Odor, after one week” value is “No”.
Turning to `C=Cc1ccc(S(=O)(=O)O)cc1.CCCCCCCCN(CCCCCCCC)CCCCCCCC` [TOASS, parastyrenesulfonic acid n-trioctylamine, reference compound], the “Solubility in water (in words)” value in data set [1] is reported as “poor water solubility”. In addition, the “Monomer (area %), after one week” value in data set [2] (GPC, solid, 60° C.) was found to be 0.00 area %. In addition, the “Odor, after one week” value in data set [2] (solid, 60° C.) is “Yes”. The “Properties on the first day of evaluation” value in data set [2] (solid, 60° C., first day) is given as “yellow translucent plastic form”.
“parastyrenesulfonic acid N,N-diisopropylethylamine salt [DIPEASS]”: in data set [1], the “Solubility NMP” value is “∘ (Easily soluble (10 wt % or more))”, the “Solubility THF” value was “Δ (Soluble (1 to 10 wt %))” and the “Solubility Toluene” value is “Δ (Soluble (1 to 10 wt %))”. In addition, the “Solubility Water” value in data set [1] (water) is “∘ (Easily soluble (10 wt % or more))”. For the same compound, the “Monomer (area %), after one week” value in data set [2] (GPC, solid, 60° C.) is recorded as 92.40 area %. Also, in data set [2] (solid, 60° C.), the “Odor, after one week” value is on record as “No” and the “Comprehensive Evaluation (storage stability)” value is reported as “∘”.
With “parastyrenesulfonic acid N,N-dimethylcyclohexylamine salt [CHASS]”, in data set [1], the “Solubility NMP” value was “∘ (Easily soluble (10 wt % or more))”, the “Solubility THF” value is “∘ (Easily soluble (10 wt % or more))” and the “Solubility Toluene” value is given as “Δ (Soluble (1 to 10 wt %))”. Also, in data set [1] (organic solvent), the “Solubility in an organic solvent (in words)” value is listed as “sufficient solubility in an organic solvent”. In addition, in data set [1] (water), the “Solubility in water (in words)” value is given as “soluble in water” and the “Solubility Water” value is listed as “∘ (Easily soluble (10 wt % or more))”. In data set [2] (GPC, before start of the 60° C. test), the “Monomer (area %), before start of reaction” value was found to be 100 area %. Besides, the “Monomer (area %), after one week” value in data set [2] (GPC, solid, 60° C.) is given as 97.24 area %. Further, the “Odor, before start of reaction” value in data set [2] (before start of the 60° C. test) was “No”. In data set [2] (solid, 60° C.), the “Odor, after one week” value is “No” and the “Comprehensive Evaluation (storage stability)” value is reported as “∘”.
Turning to “parastyrenesulfonic acid dicyclohexylamine salt [DCHASS, reference compound]”, in data set [1], the “Solubility NMP” value is “∘ (Easily soluble (10 wt % or more))”, the “Solubility THF” value is listed as “x (Insoluble (1 wt % or less))” and the “Solubility Toluene” value is listed as “x (Insoluble (1 wt % or less))”. For the same compound, the “Solubility (in words)” value in data set [1] (overall, Evaluation 1) was “did not have sufficient solubility”. The “Solubility Water” value in data set [1] (water) was “x (Insoluble (1 wt % or less))”.

The values above are taken from patent publication US11459410B2, “High-purity amphipathic arylsulfonic acid amine salt vinyl monomer and copolymer thereof” (TOSOH FINECHEM CORPORATION, priority 2017, dated 2022).
